Source: patent publication US20250009791A1, “METHOD FOR PREVENTION AND REDUCTION OF SKIN STASIS WITH COMPOSITIONS AND MATERIALS COMPRISING COPPER COMPOUNDS” (MEDCU TECHNOLOGIES LTD., priority 2018, published 2025)
Entries after “also recorded” stand apart in the source; their conditions may differ.

How the values were obtained:
[1] = tested on: burned human skin explants; experiment: Histology of skin explants (H&E, Masson's trichrome); type: cell-based
Description: At indicated harvesting time points, skin explants were fixed with 4% formaldehyde for 1 hour at room temperature. Then, the samples were washed twice with PBS and kept at 70% ethanol at 2-8° C. until use. Following dehydration in gradual increasing concentrations of ethanol and embedment, paraffin sections (8 μm) were prepared, pasted on slides and either stained with haematoxylin and eosin (H&E) or Masson trichrome stain, according to the manufacturer specification (Sigma-Aldrich) followed by mounting with DPX mountant (Sigma, Israel).
Examination of tissue formation was performed on day 12 and 27. Sections of Normal and Burned skin, treated or not with copper ions were stained with H&E and Masson's trichrome staining respectively. FIGS. 6a-6c show full length images of sections stained with H&E.

TGF-β = TGF-β secretion into spent medium by ELISA; type: cell-based, human
Description: (§1) During harvesting time points, the spent medium from all Test Groups was collected and centrifuged at 1500×g for 5 minutes to remove particulates. Media were kept at −80° C. until use. The secretion levels of IL-6, IL-8 and TGF-β were measured by commercial Enzyme-Linked Immunosorbent Assay (ELISA) kits according to manufacturer instructions (Biolegend, San Diego, CA). Briefly, plates were coated for 24 hours prior to assay with a specific anti-human capture antibody. At the day of the assay, coated plates were incubated with samples, followed by washes for unbound molecules. Then additional detection antibody was added and detected by Avidin-HRP solution. Finally, wells were incubated with a substrate solution, while absorbance was measured at 570 nm.
In order to further understand how addition of copper ions affected the skin explants, the amounts of Interleukin 6 (IL-6), Interleukin 8 (IL-8) and transforming growth factor beta (TGF-β) found in the medium of the various treated explants were determined. FIGS. 3a, 3c and 3e show the cytokine expression in burn-induced inflammation in human ex vivo skin and comparison between the IL-6, IL-8 and TGF-β secretion by the untreated skin explants (Naïve Controls) and the wounded skin explants (Burn Controls) following wounding. In these figures, the p values of a t-test between the cytokine expressions per a particular day following wounding are shown. Measurements were normalized to amount of cytokine secreted from normal skin and are presented as percent of Naïve control.
Reference is also made to FIGS. 3b, 3d and 3f showing the effect of addition of copper ions (0.02 μM or 1 μM) on secretion of IL-6, IL-8 and TGF-β, respectively, as compared to Naïve Controls and Burn Controls on Day 4 (treated with saline only) (FIGS. 3b and 3d) and on Day 6 (FIG. 3f) after wounding. In the graphs, the star sign “*” indicates the statistically significant difference as compared to the Naïve Controls, while the net sign “#” indicates the statistically significant difference as compared to the untreated (treated with saline only) Burn Controls.

IL-8 = IL-8 secretion into spent medium by ELISA; type: cell-based, human
Description: as §1
In order to further understand how addition of copper ions affected the skin explants, the amounts of Interleukin 6 (IL-6), Interleukin 8 (IL-8) and transforming growth factor beta (TGF-β) found in the medium of the various treated explants were determined. FIGS. 3a, 3c and 3e show the cytokine expression in burn-induced inflammation in human ex vivo skin and comparison between the IL-6, IL-8 and TGF-β secretion by the untreated skin explants (Naïve Controls) and the wounded skin explants (Burn Controls) following wounding. […]

[2] = tested on: Ki67 stained cells in burned human skin explants; experiment: Ki67 immunostaining of proliferating keratinocytes at the re-epithelisation area; type: cell-based; settings: FIG. 7
Description: Immunostaining with Rabbit-anti Ki67 (Abcam, UK) was performed following rehydration, blocking in 2% BSA in PBS for 20 mins, for 2 hours, followed by exposure to Goat Anti-Rabbit IgG H&L (HRP) for one hour and detection by DAB substrate (Abcam, UK). Washes were then performed in 0.025% Tween/PBS. Counterstain was performed with haematoxylin (Sigma, Israel). Images were captured using Zeiss® PrimoVert microscope connected to Motic® Moticam 5+ camera.

IL-6 = IL-6 secretion into spent medium by ELISA; type: cell-based, human
Description: as §1, with “nm. In order to further understand how addition of copper ions affected the skin explants, the amounts of Interleukin 6 (IL-6), Interleukin 8 (IL-8) and transforming growth factor beta (TGF-β) found in the medium of the various treated explants were determined. FIGS. 3a, 3c and 3e show the cytokine expression in burn-induced inflammation in human ex vivo skin and comparison between the IL-6, IL-8 and TGF-β secretion by the untreated skin explants (Naïve Controls) and the wounded skin explants (Burn Controls) following wounding. […]” for “nm.”

[3] = tested on: burn wounds on human skin explants (zone of stasis); experiment: Burn wound area measurement in ex-vivo human skin explant burn model; type: cell-based; settings: for size of the wounds compared with wounds treated with saline only: 0.02 μM copper ions
Description: Human skin was obtained from healthy donors undergoing abdominal dermolipectomy after receiving informed consent. A 0.5 mm split-thickness skin graft was harvested using a dermatome (Aesculap AG & Co. KG, Tuttlingen, Germany) and was cut into 1 cm^2 pieces. Round burn wounds of with a diameter of […] were inflicted in the 0.7 cm^2 skin pieces by exposure to a soldering iron (95° C., 2 Sec). Triplicate pieces were kept intact as naïve controls. The injured and intact skin samples were placed dermis down on a stainless-steel grid and cultured at the air-liquid interface at 37° C. with 5% CO2 in Dulbecco's Modified Eagle's Medium (DMEM), 10% fetal calf serum (Biological Industries, Beit Ha′emek, Israel), and penicillin/streptomycin (100 IU/mL penicillin, […] streptomycin; Invitrogen). Culture medium was refreshed twice a week. The explants were cultured up to 27 days after wounding. Each individual experiment was performed with skin explants obtained from the same individual and the experiments were repeated at least three times. Reference is now made to FIGS. 1a and 1b schematically showing a side view and a top view, respectively, of this ex-vivo explant model. The skin explants are placed dermis down on a stainless-steel grid. Culture media is added to the bottom of the well, without reaching the epidermal layer, which is exposed to the air. […] From the stock solutions, solutions of 0.02 μM or 1 μM of copper ions were prepared in saline. […] Each control and treatment were performed in at least three replicate explants. Skin was obtained from 35-65-year-old healthy patients undergoing abdominoplasty surgery. The patient's under general anesthesia, went standard or circumferential abdominoplasty. After excision of the excess skin, the subcutaneous fat was removed using sterile technique. The defatted full-thickness skin was submerged in culture medium and transferred to the laboratory. The skin was cut into 8×8 mm squares by costume made apparatus. Round 0.8 mm diameter burn wounds were inflicted on the skin explants by exposure to a soldering iron (200° C., 10 Sec). The injured (burnt) and control intact skin samples were placed dermis down and kept at the air-liquid interface at 37° C. with 5% CO2 in Dulbecco's Modified Eagle's Medium supplemented with 100 IU/mL penicillin and […] streptomycin and 10% serum (Biological Industries, Beit Ha′emek, Israel). Culture medium was refreshed every 48 hours, i.e. immediately following injury and then again, every 48 hours, saline only or containing 0.02 μM or 1 μM copper ions were added onto the skin explant burn wounds. The explants were cultured up to 27 days after wounding. Pictures of burns were captured using Motic® Moticam 5+ camera at designated time points. Wound area was measured using ImageJ software suit. […]

[4] = tested on: epidermis of human skin explants; experiment: MTT viability assay of the epidermis of skin explants; type: cell-based; settings: 0.02 μM or 1 μM copper ions
Description: To assess the cell viability throughout the culture period a 3-(4,5-dimethylthiazol-2-yl)-2,5-diphenyltetrazolium bromide (MTT) assay was performed at different days after wounding as follows:
To assess the cell viability throughout the culture period a 3-(4,5-dimethylthiazol-2-yl)-2,5-diphenyltetrazolium bromide (MTT) assay was performed 1, 3, 5, 10, 14, 21 and 27 days, following wounding, as follows: skin explants were incubated for 60 sec in pre-warmed PBS (56° C.). Then the epidermis layer of each replicate was separated from the dermis by grabbing the tissue edge with tweezers and peeling the epidermis off using a scalpel. Epidermal pieces were transferred to 96 well-plate, each well contains 150 μl MTT (Sigma, 0.5 mg/ml) and incubated for 1 hour at 37° C. and reduced light conditions. Then, the epidermis pieces were transferred to a new 96 well-plate containing 150 μl of isopropanol. Plates were placed for 5 min, 200 rpm in a plate shaker (MRC, Beijing, China). Following incubation, epidermis sections were removed, and absorbance was measured at 570 nm in Tecan plate reader (Tecan Group Ltd. Switzerland).

## [Cu+] [copper ions]
[1]; 0.02 μM and 1 μM copper ions, 12 days, H&E, vs Burn Control
  re-epithelisation (epithelia regeneration): Beginning of epithelia regeneration (grey arrows) is seen; also recorded: newly formed epithelia
[1]; 0.02 μM or 1 μM copper ions, day 12, H&E, FIGS. 6b and 6c
  detachment of the epidermal tissue from the dermis: less detached of the epidermal tissue from the dermis
[1]; Day 27, Masson's trichrome, FIG. 4c, vs control samples
  re-epithelisation: clear re-epithelisation occurred
[1]; Day 27, Masson's trichrome, FIG. 4c, vs saline-treated control
  collagen stain / amount of collagen fibers in the dermal layer: an increase in the amount of collagen fibers; also recorded: greater collagen stain
TGF-β; 0.02 μM or 1 μM copper ions from both copper sources, Day 4 (FIG. 3f)
  burn-induced increase of TGF-β compared with Burn Controls: dramatically inhibited; also recorded: significantly attenuated or abolished; also recorded: significantly inhibited
TGF-β; Day 6 and onwards
  TGF-β level: returning to normal levels
TGF-β; other examined days
  TGF-β secretion compared with Burn control samples: no statistically significant differences
IL-8; 0.02 μM or 1 μM copper ions from both copper sources, Day 4 (FIG. 3d)
  burn-induced increase of IL-8 compared with Burn Controls: significantly lower; also recorded: significantly attenuated or abolished
IL-8; Day 1
  amount of IL-8 secreted compared with Burn control samples: did not differ significantly
[2]; 0.02 μM copper ions
  amount of Ki67 stained cells compared to control: significantly higher amount of Ki67 stained cells
[2]; skin pieces fixed after 12 days
  newly proliferating cells stained with Ki67: significantly more common
IL-6; Day 1 following the burn
  levels of IL-6: dramatically elevated in the Burn Controls but not in the copper ion treated samples
IL-6; after Day 4
  IL-6 levels compared with Burn Control samples: no significant differences in IL-6 levels
[3]; 5 and 10 days following wounding
  size of the wounds compared with wounds treated with saline only: similarly smaller wounds
[3]; three days following wounding
  size of the wounds compared with wounds treated with saline only: statistically smaller than the wounds which are treated with saline only
[3]; end of the experiment
  burn size at the end of the experiment: not massively improved
[3]; topical application of the ions
  increase in burn size that occurs after the initial damage: prevented the increase in burn size
[4]; 5 days after burn, differences not statistically significant
  viability of burned skin explants compared with untreated pieces: a trend of increased viability
[4]; after 1 day
  viability of burned skin explants compared with untreated pieces: remained similar to the untreated pieces
